Laboratory results: patent US20250296909A1, “NOVEL BENZENE DERIVATIVE AND IMMUNOSUPPRESSION-RELATED USE THEREOF” (PROVIBIO CO., LTD., priority 2021, published 2025)

Experiments:
spleen T cells [1] = test: T cell proliferation inhibition (CFSE, FACS), CD3/CD28-activated spleen T cells; assay type: cell-based, C57BL/6 mice; conditions: Table 2, 3 days, relative to CD3/CD28+DMSO; for inhibition at 10 µM / inhibition at 30 µM / inhibition at 50 µM: Mus musculus, T-cell, 72 h, read-out: Proliferation inhibition rate (%)
Experimental: To investigate whether the compounds obtained in the Preparation Example have an inhibitory effect on T cell proliferation, the T cell proliferation was determined ex vivo using the fluorescent dye carboxyfluorescein diacetate succinimidyl ester (CFSE), which binds to intracellular molecules by covalent bonds.
Spleens were harvested and minced from C57BL/6 mice at 7 weeks of age, and then single cells were isolated using a strainer (40 μm pore size, SPL). Red blood cells were removed using ACK (Ammonium-Chloride-Potassium) lysis buffer to isolate only leukocytes. Subsequently, CD90.2 microbeads (130-121-278, Miltenyi Biotech.) were added, and subjected to react at 4° C. for 20 minutes. After that, spleen T cells were isolated using a MACS Magnetic Stand and LS column. The isolated T cells from the spleen were resuspended in 1 mL of Free media (RPMI-1640+200 U/mL penicillin+200 μg/mL streptomycin), followed by the addition of 0.3 μL of CFSE (10 mM), and reacted at 37° C. for 5 minutes. Subsequently, 10 mL of Free media was added to stop the reaction, and the cells were centrifuged to obtain the cell pellet. RPMI 1640 medium containing 10% FBS, 100 U/mL penicillin, and 100 μg/mL streptomycin was added to suspend the cells, and 2×10^5 cells per well were seeded into a 96-well plate and T cells were activated by treatment with CD3 and CD28 antibodies (each at 0.5 μg/mL).
The compound diluted in DMSO was treated in triplicate at concentrations of 10 μM, 30 μM, and 50 μM, respectively. After incubation at 37° C. with 5% CO2 for 3 days, cell proliferation levels were determined using a FACS Canto machine.
In the FACS graph of FIG. 1, the y-axis represents the quantity (number) of cells, while the x-axis represents the fluorescence level of the cells. […] This reduction in CFSE fluorescence results in a leftward shift along the x-axis in the graph. This indicates cell proliferation.
To collectively indicate the proliferation inhibition rate for the experimental results, the relative value of the proliferation amount after compound administration to the proliferation amount after CD3/CD28+DMSO administration was calculated. Subsequently, it was converted into an inhibition amount and expressed as a percentage, thereby determining the proliferation inhibition rate. Specifically, the proliferation inhibition rate was calculated as follows: […]

[2] = tested on: T lymphocyte cell line Jurkat E6-1; test: Cytotoxicity experiment (CCK-8, relative cell survival); assay type: cell-based; conditions: 24 hours, untreated cells = 100%
Experimental: To evaluate the cytotoxicity of the compound according to the present invention, the following experiment was conducted.
The T lymphocyte cell line Jurkat E6-1, purchased from the Korean Cell Line Bank, was cultured in RPMI-1640 medium comprising 10% FBS, 100 U/mL penicillin, and 100 μg/mL streptomycin. After culturing, the cells were harvested and centrifuged at 1,300 rpm for 5 minutes. After removal of the supernatant, the cells were resuspended in the same medium at a concentration of approximately 2.2×10^5 cells/mL, and 90 μL of the cell suspension was distributed per well into a 96-well plate (Costar 96 well cell culture plate, Corning). After treating 10 μL of each compound at different concentrations onto the respective wells of the plate, it was cultured for 24 hours at 37° C. in a 5% CO2 incubator. Subsequently, 10 μL of CCK-8 was added to each well, and it was cultured again for 2 hours at 37° C. in a 5% CO2 incubator. Absorbance was then measured at 450 nm to determine the relative cell survival rate compared to untreated cells, as shown in Table 4.
The values listed in Table 4 represent the relative cell survival rates in the groups treated with each compound at different concentrations, with the cell survival rate of untreated cells set as 100%.

spleen T cells [3] = test: Cytokine secretion by anti-CD3/CD28-activated T cells (Cytometric Bead Array); assay type: cell-based, C57BL/6 mice; conditions: 30 μM; for secretion of IL-2: 24 hours after treatment, FIG. 3; for secretion of IFN-γ / secretion of IL-17A / secretion of TNF-α: 72 hours after treatment
Experimental: To confirm the effect of compounds of the present invention on the secretion of cytokines by T cells, the following experiment was conducted.
Spleens were harvested and minced from C57BL/6 mice at 7 weeks of age, and single cells were isolated using a strainer (40 μm pore size, SPL). Red blood cells were removed using ACK (Ammonium-Chloride-Potassium) lysis buffer to isolate only leukocytes. These were then reacted with 10 v/v % CD90.2 microbeads (130-121-278, Miltenyi Biotech.) at 4° C. for 20 minutes, resulting in the isolation of spleen T cells from magnetic-based purification. The T cells were cultured in a 96-well plate at an amount of 2×10^5 cells/well. For T cell activation, each well was treated with anti-CD3/CD28 antibodies at a concentration of 1 μg/mL. Subsequently, Vehicle (DMSO) and compounds (Compound 14, Compound 19, Compound 26, Compound 31, Compound 35, Compound 40, Compound 41, Compound 56, Compound 69, Compound 75) at a concentration of 30 μM were treated in each well, and it was cultured at 37° C. in a 5% CO2 incubator. After 24 and 72 hours, the T cell culture medium was taken, and centrifugation was performed at 13,000 rpm for 10 minutes to obtain the supernatant.
To measure the concentration of cytokines present in the T cell culture medium, Mouse Th1/Th2/Th17 Cytokine CBA Kit (Cytometric Bead Array kit) 560485 from BD Science was utilized for flow cytometry analysis. The secretion levels of IL-2 at 24 hours after each drug treatment, and IFN-γ, TNF-α, and IL-17A at 72 hours were measured after each drug treatment.

Structure (SMILES)	Proliferation inhibition rate (%) (spleen T cells [1]; 10 μM)	Proliferation inhibition rate (%) (spleen T cells [1]; 30 μM)	Proliferation inhibition rate (%) (spleen T cells [1]; 50 μM)	Relative cell survival rate (%) ([2]; 10 μM)	Relative cell survival rate (%) ([2]; 20 μM)	Relative cell survival rate (%) ([2]; 30 μM)	Relative cell survival rate (%) ([2]; 50 μM)	secretion of IL-2 (spleen T cells [3])	secretion of IFN-γ (spleen T cells [3])	secretion of IL-17A (spleen T cells [3])	secretion of TNF-α (spleen T cells [3])	inhibition at 10 µM (spleen T cells [1]; 10 μM) [%]	inhibition at 30 µM (spleen T cells [1]; 30 μM) [%]	inhibition at 50 µM (spleen T cells [1]; 50 μM) [%]
CCCCCCCCCCCCNS(=O)(=O)c1c(Cl)cccc1Cl [Compound 40]	86	97	97	105	99	96	86	significant decrease	significant decrease	significant decrease	significant decrease	–	–	–
CCCCCCCCCCCCNC(=O)c1cccnc1Oc1ccc(Cl)cc1 [Compound 26]	73	100	100	101	97	85	82	significant decrease	significant decrease	significant decrease	significant decrease	–	–	–
CCCCCCCCCCCCNS(=O)(=O)c1ccccc1Br [Compound 35]	85	92	93	97	89	87	86	significant decrease	significant decrease	significant decrease	significant decrease	–	–	–
CCCCCCCCCCCCNC(=O)c1cnccc1N [Compound 71]	–	–	–	101	94	92	88	–	–	–	–	100	100	100
CCCCCCCCCCCCNC(=O)c1ncc(F)cc1F [Compound 34]	–	–	–	112	109	101	87	–	–	–	–	6	43	87
CC(C)=CCC/C(C)=C/CNC(=O)c1cccnc1N [Compound 75]	–	–	–	97	95	86	85	significant decrease	significant decrease	significant decrease	significant decrease	95	98	98
CCCCCCCCCCCCNC(=O)c1cccnn1 [Compound 31]	–	–	–	111	111	102	102	–	–	–	–	15	57	69
CCCCCCCCCCCCNS(=O)(=O)c1ccccc1[N+](=O)[O-] [Compound 58]	–	–	–	100	98	97	94	–	–	–	–	39	51	68
CCCCCCCCCCCCNC(=O)c1ccccc1C(F)(F)F [Compound 38]	40	73	85	90	91	89	89	–	–	–	–	–	–	–
CCCCCCCCCCCCNC(=O)c1cccc(Cl)c1N [Compound 29]	–	–	–	107	80	77	60	–	–	–	–	5	33	65
CCCCCCCCCCCCNC(=O)c1ccccc1C(=O)O [Compound 37]	–	–	–	90	90	90	92	–	–	–	–	23	55	65
CCCCCCCCCCCCNC(=O)c1ccncc1N [Compound 68]	–	–	–	92	91	88	82	–	–	–	–	57	67	100
CCCCCCCCCCCCNC(=O)c1ncccc1Br [Compound 73]	–	–	–	94	97	98	104	–	–	–	–	32	76	86
CCCCCCCCCCCCNC(=O)c1c(F)cccc1[N+](=O)[O-] [Compound 64]	–	–	–	91	87	87	87	–	–	–	–	79	100	100
CCCCCCCCCCCCNC(=O)c1ccc(F)c(F)c1F [Compound 55]	–	–	–	115	110	108	105	–	–	–	–	52	82	95
CCCCCCCCCCCCNC(=O)c1ccccc1Nc1cccc(C)c1C [Compound 51]	–	–	–	99	94	92	90	–	–	–	–	100	100	100
